“Also recorded” adds a separate entry of the source.
What was measured:
[1] = test system: alcohol-induced liver injury; test: Alcohol-induced liver injury, chronic plus binge ethanol feeding: serum ALT and liver histology; type: in vivo, B6 (WT) male mice
Source text: Following acclimatization with nutritionally adequate Lieber-DeCarli liquid diet for a week, 6-8 week old male C57BL/6J mice (B6) and Jα18−/− mice, which lack type I NKT cells but not type 2 NKT cells, were given free access to a liquid diet containing 5% ethanol or an isocaloric dextrin maltose-containing diet (Bio-Serv, NJ). Precautions were taken to prepare the diet fresh every day using autoclaved water in sterilized feeders, changing feed daily.
B6 and Jα18−/− mice receiving the ethanol-containing diet were separated into two groups, the chronic ethanol feeding group and the chronic plus binge ethanol feeding group. Mice in the chronic ethanol feeding group were fed liquid diet containing 5% ethanol for up to 4-5 weeks. Mice in the chronic plus binge ethanol feeding group were fed liquid diet containing 5% ethanol for 10 days followed by (on day 11) a single high dose of gavaged ethanol (5 g/kg body weight). Mice in the control group were gavaged with isocaloric dextrin maltose. Following gavage, mice were kept on a temperature controlled warm pad and monitored. Though initially slow moving, most mice receiving the high dose of gavaged ethanol regained normal behavior within hours. Mice were euthanized 8-9 hr after gavage. […]
Serum ALT levels were determined for each group of mice. […]

type I NKT cells [2] = test: In vitro αGalCer-stimulated proliferation of splenic type I NKT cells ([3H]-thymidine incorporation); type: cell-based, naïve B6 mice; conditions: for type I NKT cell proliferation at optimal concentration of RAR agonist: Example 15, αGalCer 10 ng/ml, comparison among ATRA, Tretinoin, AM580, AC55649, CD1530
Experimental: Retinoic acid receptors (RARs) comprise three major subtypes: RARα, RAR β, and RARγ. The RAR agonist ATRA is not selective for a specific subtype. The contribution of RAR subtypes to inhibition of type I NKT cell activity was tested with subtype-selective RAR agonists as follows. Splenic cells were isolated from naïve B6 (WT) mice and cultured in vitro in the presence of [^3H]-thymidine, an optimal concentration of αGalCer, and graded concentrations of the pan-RAR agonist ATRA, the RARα agonist AM580, the RAR β 2 agonist AC55649 or the RARγ agonist CD1530. Proliferation of the type I NKT cells in response to αGalCer stimulation was measured by [^3H]-thymidine incorporation. […]
In vitro proliferation and cytokine release assays were performed on freshly isolated splenocytes and type I NKT cell hybridomas (1.2 Hyb). The cells were cultured in the presence of [3H]-thymidine and an optimal concentration of αGalCer (10 ng/ml) with titrating concentrations of ATRA, Tretinoin, the RARα agonist AM580, the RAR β agonist AC55649 or the RARγ agonist CD1530. Proliferation of the type I NKT cells in response to αGalCer stimulation was quantified by [^3H]-thymidine incorporation. IL-2 levels were measured using IL-2 sandwich ELISA. Optimal concentrations of the RAR agonists was determined. […]

type I NKT cells (Hy1.2) = test: IL-2 secretion by type I NKT cell hybridoma (Hy1.2) with APCs and αGalCer (IL-2 sandwich ELISA); type: cell-based
Experimental: The affect of ATRA on IL-2 cytokine secretion by a type I NKT cells in response to an in vitro challenge with αGalCer was tested by co-culturing NKT cells (Hy1.2) and irradiated antigen-presenting cells (APCs) in vitro with an optimal concentration of αGalCer in the presence or absence of ATRA (0.15 μg/ml, 1.2 μg/ml, or 18.8 μg/ml) for a period of 16 hours. Supernatants were collected and secreted IL-2 levels were measured using IL-2 sandwich ELISA.
In vitro proliferation and cytokine release assays were performed on freshly isolated splenocytes and type I NKT cell hybridomas (1.2 Hyb). The cells were cultured in the presence of [3H]-thymidine and an optimal concentration of αGalCer (10 ng/ml) with titrating concentrations of ATRA, Tretinoin, the RARα agonist AM580, the RAR β agonist AC55649 or the RARγ agonist CD1530. Proliferation of the type I NKT cells in response to αGalCer stimulation was quantified by [^3H]-thymidine incorporation. IL-2 levels were measured using IL-2 sandwich ELISA. Optimal concentrations of the RAR agonists was determined.
In vitro proliferation and cytokine release assays were performed on freshly isolated splenocytes and type I NKT cell hybridomas (1.2 Hyb). The cells were cultured in the presence of [^3H]-thymidine and an optimal concentration of αGalCer (10 ng/ml) with increasing concentrations of ATRA or Tazarotene. Proliferation of the type I NKT cells in response to αGalCer stimulation was quantified by [H]-thymidine incorporation. IL-2 levels were measured using IL-2 sandwich ELISA.

type I NKT cells [3] = test: Ex vivo proliferation and cytokine response to αGalCer of type I NKT cells from RAR agonist injected mice; type: in vivo; conditions: for proliferative response of splenic type I NKT cells to αGalCer stimulation: Example 17, cells from mice injected i.p. 15 mg/kg daily for 5 days, vs vehicle (DMSO)
Experimental: Functional changes in type I NKT cells following ATRA administration were further tested. In two independent experiments, groups of Black 6 (WT) mice were injected intraperitoneally with 0.3 mg/animal (˜15 mg/Kg body weight) ATRA or vehicle (DMSO) daily for a period of 5 days. Type I NKT cells were purified and cultured in vitro with increasing concentrations of αGalCer. Cell proliferation was measured and supernatants were collected. The cytokine response of the isolated type I NKT after in vitro challenge with αGalCer was determined by sandwich ELISA for IFN-γ, IL-4, IL-6, IL-10, IL-12, and IL-13. […] No secretion of IFN-γ, IL-6, IL-10, IL-12, or IL-13 in response to αGalCer stimulation was detected from type I NKT cells isolated from ATRA injected mice.
(§1) Functional changes in type I NKT cells following in vivo administration of Tazarotene or ATRA was tested. Groups of mice were injected intraperitoneally with […] (15 mg/kg), 300 μg Tazarotene (15 mg/kg) or vehicle (DMSO) daily for a period of 5 days. Splenic Type I NKT cells were purified and cultured in vitro with increasing concentrations of αGalCer. Cell proliferation was measured by quantification of [^3H]-thymidine incorporation and the results are shown at FIG. 17.

[4] = test system: MBPAc1-9-reactive CD4+ T cells; test: Proliferation of MBPAc1-9-reactive CD4+ T cells ([3H]-thymidine incorporation); type: cell-based, naïve B10.PL VB8.2 TCR transgenic mice; conditions: ATRA 0.15, 1.2, 18.8 μg/ml
Experimental: The effect of ATRA on class II MHC-restricted conventional CD4 T Cells was tested by isolating myelin basic protein MBPAc1-9-reactive CD4+ T cells from naïve B10.PL VB8.2 TCR transgenic mice and culturing the cells in vitro with [^3H]-thymidine and an optimal concentration of MBPAc1-9 in the presence or absence of graded concentrations of ATRA (0.15, 1.2, 18.8 μg/ml). Proliferation of the MBPAc1-9-reactive CD4+ T cells was measured by [^3H]-thymidine incorporation.

[5] = test system: Type I NKT hybridoma cells (Hy1.2); test: IL-2 secretion by Hy1.2 cells pretreated with ATRA in the absence of antigen-presenting cells; type: cell-based; conditions: Hy1.2 pretreated 24 hr with 5, 10 or 20 μg/ml ATRA, washed, then APCs + graded αGalCer, 16 hour
Experimental: The effect of ATRA treatment on type I NKT cells in the absence of antigen-presenting cells was also measured. Type I NKT hybridoma cells (Hy1.2) were cultured in vitro either without ATRA or with 5 μg/ml, 10 μg/ml, or 20 μg/ml ATRA for 24 hr. The cells were then washed three times and co-cultured with irradiated splenocytes (APCs) in the presence of graded concentrations of the lipid antigen, αGalCer. Supernatants were collected 16 hour later and IL-2 levels were measured using IL-2 sandwich ELISA.

liver type I NKT cells = test: Flow cytometry count of liver type I NKT cells (αGalCer/CD1d-tetramer/TCRβ) after in vivo administration; conditions: mice injected i.p. 15 mg/kg daily for 5 days
Experimental: as §1
Mononuclear cells were isolated from livers of mice injected with either ATRA, Tazarotene or vehicle (DMSO) and stained with αGalCer/CD1d-tetramer and a pan anti-TCRβ antibodies. Flowcytometry was performed and the population of αGalCer/CD1d-tetramer/TCRβ expressing cells (type I NKT cells) was quantified as shown in FIG. 18.

[6] = Example 16, splenocytes, αGalCer 10 ng/ml, increasing concentrations of ATRA or Tazarotene
[7] = Example 16, 1.2 Hyb, αGalCer 10 ng/ml, increasing concentrations of ATRA or Tazarotene
[8] = cells from mice injected i.p. with 0.3 mg/animal ATRA daily for 5 days

## CC1=C(/C=C/C(C)=C/C=C/C(C)=C/C(=O)O)C(C)(C)CCC1 [ATRA, all trans retinoic acid]
[1]
  protection from liver damage following excess alcohol consumption (summary of FIGS. 6 and 7): significantly inhibits liver damage
[1]; B6 mice, sulfatide or ATRA injected
  liver histology for hepatic steatohepatitis (fatty liver disease): little sign of fatty liver disease; also recorded: appears relatively normal
Type I NKT cells [2]; 0.15 μg/ml ATRA + αGalCer
  αGalCer-induced type I NKT cell proliferation compared with αGalCer alone: similar
Type I NKT cells [2]; 1.2 μg/ml ATRA + αGalCer
  αGalCer-induced type I NKT cell proliferation compared with αGalCer alone: reduced
Type I NKT cells [2]; 18.8 μg/ml ATRA + αGalCer
  αGalCer-induced type I NKT cell proliferation compared with αGalCer alone: greatest inhibition
Type I NKT cells [2]; ATRA alone, no αGalCer
  type I NKT cell proliferation: No or minimal proliferation
Type I NKT cells [2]; Example 12, 10^1 μg/ml
  type I NKT cell proliferation in response to αGalCer: low or minimal proliferation
Type I NKT cells [2]; Example 14, 10^1 μg/ml
  type I NKT cell proliferation in response to αGalCer: no or minimal proliferation
Type I NKT cells [2]
  type I NKT cell proliferation at optimal concentration of RAR agonist: lowest levels of proliferation
Type I NKT cells [2]; [6]
  type I NKT cell proliferation: inhibit
Type I NKT cells (Hy1.2); 0.15 μg/ml ATRA, αGalCer, irradiated APCs, 16 hours
  IL-2 secretion: not significantly affected
Type I NKT cells (Hy1.2); 1.2 μg/ml ATRA, αGalCer, irradiated APCs, 16 hours
  IL-2 secretion: significant reductions
Type I NKT cells (Hy1.2); 18.8 μg/ml ATRA, αGalCer, irradiated APCs, 16 hours
  IL-2 secretion: greatest reduction
Type I NKT cells (Hy1.2); [7]
  IL-2 secretion: inhibit
Type I NKT cells [3]
  proliferative response of splenic type I NKT cells to αGalCer stimulation: inhibits type I NKT cell activity
Type I NKT cells [3]; cells from WT mice injected i.p. with 0.3 mg/animal ATRA daily for 5 days
  proliferation of type I NKT cells in response to αGalCer stimulation: did not proliferate
Type I NKT cells [3]; [8]
  IFN-γ secretion in response to αGalCer stimulation: No secretion
  IL-4 secretion in response to αGalCer stimulation: Reduced levels
  IL-6 secretion in response to αGalCer stimulation: No secretion
  IL-10 secretion in response to αGalCer stimulation: No secretion
  IL-12 secretion in response to αGalCer stimulation: No secretion
  IL-13 secretion in response to αGalCer stimulation: No secretion
[4]
  MBPAc1-9-stimulated proliferation of CD4+ T cells: No inhibition; also recorded: does not directly inhibit
[5]
  IL-2 secretion: inhibits IL-2 secretion
Liver type I NKT cells
  numbers of type I NKT cells in the livers vs control: no significant difference

## CC1(C)CCC(C)(C)c2cc(C(=O)Nc3ccc(C(=O)O)cc3)ccc21 [AM580]
Type I NKT cells [2]; Example 12, 10^1 μg/ml
  type I NKT cell proliferation in response to αGalCer: proliferation was maintained

## O=C(O)c1ccc(-c2ccc3cc(O)c(C45CC6CC(CC(C6)C4)C5)cc3c2)cc1 [CD1530]
Type I NKT cells [2]; Example 12, 10^1 μg/ml
  type I NKT cell proliferation in response to αGalCer: low or minimal proliferation
Type I NKT cells [2]
  type I NKT cell proliferation at optimal concentration of RAR agonist: lowest levels of proliferation
Type I NKT cells (Hy1.2); Example 15, 1.2 Hyb, αGalCer 10 ng/ml, comparison among RAR agonists
  IL-2 secretion at optimal concentration of RAR agonist: lowest levels of IL-2 secretion

## CCCCCCCCc1ccc(-c2ccc(C(=O)O)cc2)cc1 [AC55649]
Type I NKT cells [2]; Example 12, 10^1 μg/ml
  type I NKT cell proliferation in response to αGalCer: low or minimal proliferation
Type I NKT cells [2]; Example 12, graded concentrations up to (below) 10^1 μg/ml
  type I NKT cell proliferation in response to αGalCer: Reduced cell proliferation

## Tazarotene
Type I NKT cells [2]; [6]
  type I NKT cell proliferation: achieves its inhibitory effects at lower concentrations; also recorded: better inhibition of type I NKT cells than ATRA
Type I NKT cells (Hy1.2); [7]
  IL-2 secretion: achieves its inhibitory effects at lower concentrations
Type I NKT cells [3]
  proliferative response of splenic type I NKT cells to αGalCer stimulation: lowest levels of proliferation
Liver type I NKT cells
  numbers of type I NKT cells in the livers vs control: no significant difference

From patent US11660309B2, “Prevention and treatment of inflammatory conditions” (GRI BIO, INC., priority 2011, dated 2023)
